Tests used:
HCT-116 = format: cell-based; conditions: HCT-116, Colon
[1] = DPPH radical scavenging assay; conditions: 25 µM test compound, 0.1 mM DPPH, acetonitrile, 30 min
Summary of the method: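 Compounds at 25 µM in acetonitrile mixed 1:2 with 0.1 mM DPPH in acetonitrile, kept 30 min in the dark at room temperature. Absorbance read at 517 nm; % scavenging = (Ac − As)/Ac × 100, Ac being DPPH blank. Ascorbic acid positive control.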

MOLT-4 = conditions: MOLT-4, Leukemia; for CC50: read-out: 50% lethal concentration (LC50)
RPMI-8226 = conditions: RPMI-8226, Leukemia; for CC50: read-out: 50% lethal concentration (LC50)
EKVX = conditions: for Total growth inhibition (TGI): Non-Small Cell Lung; for GI50: Non-Small-Cell Lung; for CC50: read-out: 50% lethal concentration (LC50), Non-Small Cell Lung
NCI-H226 = conditions: for Total growth inhibition (TGI) / CC50: NCI-H226, Non-Small Cell Lung; for GI50: NCI-H226, Non-Small-Cell Lung; for CC50: read-out: 50% lethal concentration (LC50)
NCI-H460 = conditions: for Total growth inhibition (TGI) / CC50: NCI-H460, Non-Small Cell Lung; for GI50: NCI-H460, Non-Small-Cell Lung; for CC50: read-out: 50% lethal concentration (LC50)
HCC-2998 = conditions: HCC-2998, Colon
HCT-15 = conditions: HCT-15, Colon; for CC50: read-out: 50% lethal concentration (LC50)
KM12 = conditions: KM12, Colon
SF-268 = conditions: SF-268, CNS; for CC50: read-out: 50% lethal concentration (LC50)
SF-295 = conditions: SF-295, CNS; for CC50: read-out: 50% lethal concentration (LC50)
SF-539 = conditions: SF-539, CNS; for CC50: read-out: 50% lethal concentration (LC50)
MDA-MB-435 = conditions: MDA-MB-435, Melanoma; for CC50: read-out: 50% lethal concentration (LC50)
SK-MEL-28 = conditions: SK-MEL-28, Melanoma; for CC50: read-out: 50% lethal concentration (LC50)
SK-MEL-5 = conditions: SK-MEL-5, Melanoma; for CC50: read-out: 50% lethal concentration (LC50)
OVCAR-3 = conditions: OVCAR-3, Ovarian; for CC50: read-out: 50% lethal concentration (LC50)
OVCAR-5 = conditions: OVCAR-5, Ovarian; for CC50: read-out: 50% lethal concentration (LC50)
SK-OV-3 = conditions: SK-OV-3, Ovarian; for CC50: read-out: 50% lethal concentration (LC50)
786-0 = conditions: 786-0, Renal; for CC50: read-out: 50% lethal concentration (LC50)
ACHN = conditions: for GI50 / Total growth inhibition (TGI): Renal; for CC50: read-out: 50% lethal concentration (LC50), Renal
CAKI-1 = conditions: CAKI-1, Renal
RXF 393 = conditions: RXF 393, Renal; for CC50: read-out: 50% lethal concentration (LC50)
DU-145 = conditions: DU-145, Prostate
MCF7 = conditions: MCF7, Breast; for CC50: read-out: 50% lethal concentration (LC50)
MDA-MB-231 = conditions: for GI50: MDA-MB-231, Breast; for Total growth inhibition (TGI) / CC50: MDA-MB-231/ATCC, Breast; for CC50: read-out: 50% lethal concentration (LC50)
MDA-MB-468 = conditions: MDA-MB-468, Breast; for CC50: read-out: 50% lethal concentration (LC50)
[2] = read-out: 50% lethal concentration (LC50)

Compound: C=C1CCC2C3(C)COC(c4cn(-c5ccccc5)nc4-c4ccccc4)OC3CCC2(C)C1CC=C1C(=O)OCC1O (stereo not drawn) [1a]
- GI50 (HCT-116): 1610 nM
- Total growth inhibition (TGI) (HCT-116): 3.55 µM
- CC50 (HCT-116; [2]): 7.83 µM
- % DPPH radical scavenging activity [1]: 58.66%
- GI50 (MOLT-4): 1970 nM
- Total growth inhibition (TGI) (MOLT-4): > 100 µM
- CC50 (MOLT-4): > 100 µM
- GI50 (RPMI-8226): 2020 nM
- Total growth inhibition (TGI) (RPMI-8226): 8.62 µM
- CC50 (RPMI-8226): > 100 µM
- Total growth inhibition (TGI) (EKVX): 4.66 µM
- GI50 (EKVX): 2070 nM
- CC50 (EKVX): > 100 µM
- Total growth inhibition (TGI) (NCI-H226): 4.31 µM
- GI50 (NCI-H226): 1950 nM
- CC50 (NCI-H226): 9.55 µM
- Total growth inhibition (TGI) (NCI-H460): 3.35 µM
- GI50 (NCI-H460): 1660 nM
- CC50 (NCI-H460): 6.74 µM
- GI50 (HCC-2998): 1680 nM
- Total growth inhibition (TGI) (HCC-2998): 3.11 µM
- CC50 (HCC-2998; [2]): 5.76 µM
- GI50 (HCT-15): 1720 nM
- Total growth inhibition (TGI) (HCT-15): 3.45 µM
- CC50 (HCT-15): 6.91 µM
- GI50 (KM12): 2060 nM
- Total growth inhibition (TGI) (KM12): 4.31 µM
- GI50 (SF-268): 3200 nM
- Total growth inhibition (TGI) (SF-268): 20.5 µM
- CC50 (SF-268): > 100 µM
- GI50 (SF-295): 1640 nM
- Total growth inhibition (TGI) (SF-295): 3.05 µM
- CC50 (SF-295): 5.67 µM
- GI50 (SF-539): 1840 nM
- Total growth inhibition (TGI) (SF-539): 3.26 µM
- CC50 (SF-539): 5.77 µM
- GI50 (MDA-MB-435): 1860 nM
- Total growth inhibition (TGI) (MDA-MB-435): 4.19 µM
- CC50 (MDA-MB-435): 9.43 µM
- GI50 (SK-MEL-28): 1770 nM
- Total growth inhibition (TGI) (SK-MEL-28): 3.38 µM
- CC50 (SK-MEL-28): 6.45 µM
- GI50 (SK-MEL-5): 1400 nM
- Total growth inhibition (TGI) (SK-MEL-5): 2.7 µM
- CC50 (SK-MEL-5): 5.2 µM
- GI50 (OVCAR-3): 1820 nM
- Total growth inhibition (TGI) (OVCAR-3): 3.35 µM
- CC50 (OVCAR-3): 6.16 µM
- GI50 (OVCAR-5): 1860 nM
- CC50 (OVCAR-5): 8.71 µM
- GI50 (SK-OV-3): 1770 nM
- Total growth inhibition (TGI) (SK-OV-3): 18.7 µM
- CC50 (SK-OV-3): 91.1 µM
- GI50 (786-0): 2030 nM
- Total growth inhibition (TGI) (786-0): 4.47 µM
- CC50 (786-0): 9.83 µM
- GI50 (ACHN): 1640 nM
- Total growth inhibition (TGI) (ACHN): 3.05 µM
- CC50 (ACHN): 5.67 µM
- GI50 (CAKI-1): 1860 nM
- Total growth inhibition (TGI) (CAKI-1): 4.81 µM
- GI50 (RXF 393): 1400 nM
- Total growth inhibition (TGI) (RXF 393): 2.84 µM
- CC50 (RXF 393): 5.76 µM
- GI50 (DU-145): 2050 nM
- Total growth inhibition (TGI) (DU-145): 4.16 µM
- GI50 (MCF7): 2000 nM
- Total growth inhibition (TGI) (MCF7): 9.09 µM
- CC50 (MCF7): > 100 µM
- GI50 (MDA-MB-231): 1720 nM
- Total growth inhibition (TGI) (MDA-MB-231): 3.25 µM
- CC50 (MDA-MB-231): 6.15 µM
- GI50 (MDA-MB-468): 1690 nM
- Total growth inhibition (TGI) (MDA-MB-468): 3.34 µM
- CC50 (MDA-MB-468): 6.58 µM

Compound: C=C1CCC2C3(C)COC(c4cn(-c5ccccc5)nc4-c4ccc(F)cc4)OC3CCC2(C)C1CC=C1C(=O)OCC1O (stereo not drawn) [1f, 3,19-(N-Phenyl-3-(4-fluorophenyl)-pyrazole) Acetal of Andrographolide]
- GI50 (HCT-116): 390 nM
- Total growth inhibition (TGI) (HCT-116): 1.18 µM
- % DPPH radical scavenging activity [1]: 58.15%
- GI50 (MOLT-4): 600 nM
- CC50 (MOLT-4): > 100 µM
- GI50 (RPMI-8226): 490 nM
- Total growth inhibition (TGI) (RPMI-8226): > 100 µM
- CC50 (RPMI-8226): > 100 µM
- Total growth inhibition (TGI) (EKVX): 4.72 µM
- GI50 (EKVX): 2060 nM
- CC50 (EKVX): > 100 µM
- Total growth inhibition (TGI) (NCI-H226): 2.94 µM
- GI50 (NCI-H226): 1510 nM
- CC50 (NCI-H226): 5.75 µM
- Total growth inhibition (TGI) (NCI-H460): 3.33 µM
- GI50 (NCI-H460): 1690 nM
- CC50 (NCI-H460): 6.57 µM
- GI50 (HCC-2998): 1760 nM
- Total growth inhibition (TGI) (HCC-2998): 3.21 µM
- GI50 (HCT-15): 1610 nM
- Total growth inhibition (TGI) (HCT-15): 3.18 µM
- CC50 (HCT-15): 6.28 µM
- GI50 (KM12): 1840 nM
- Total growth inhibition (TGI) (KM12): 3.59 µM
- GI50 (SF-268): 2360 nM
- Total growth inhibition (TGI) (SF-268): 5.63 µM
- CC50 (SF-268): 25.7 µM
- GI50 (SF-295): 1550 nM
- Total growth inhibition (TGI) (SF-295): 2.92 µM
- CC50 (SF-295): 5.49 µM
- GI50 (SF-539): 1770 nM
- Total growth inhibition (TGI) (SF-539): 3.16 µM
- CC50 (SF-539): 5.65 µM
- GI50 (MDA-MB-435): 1680 nM
- Total growth inhibition (TGI) (MDA-MB-435): 3.27 µM
- CC50 (MDA-MB-435): 6.38 µM
- GI50 (SK-MEL-28): 1660 nM
- Total growth inhibition (TGI) (SK-MEL-28): 3.12 µM
- CC50 (SK-MEL-28): 5.86 µM
- GI50 (SK-MEL-5): 1620 nM
- Total growth inhibition (TGI) (SK-MEL-5): 2.98 µM
- CC50 (SK-MEL-5): 5.47 µM
- GI50 (OVCAR-3): 2020 nM
- Total growth inhibition (TGI) (OVCAR-3): 3.71 µM
- CC50 (OVCAR-3): 6.79 µM
- GI50 (OVCAR-5): 1740 nM
- Total growth inhibition (TGI) (OVCAR-5): 3.88 µM
- CC50 (OVCAR-5): 8.66 µM
- GI50 (SK-OV-3): 1880 nM
- Total growth inhibition (TGI) (SK-OV-3): 5.48 µM
- CC50 (SK-OV-3): 30.7 µM
- GI50 (786-0): 1600 nM
- Total growth inhibition (TGI) (786-0): 3.34 µM
- CC50 (786-0): 6.96 µM
- GI50 (ACHN): 1660 nM
- Total growth inhibition (TGI) (ACHN): 3.11 µM
- CC50 (ACHN): 5.82 µM
- GI50 (CAKI-1): 1580 nM
- Total growth inhibition (TGI) (CAKI-1): 3.17 µM
- CC50 (CAKI-1; [2]): 6.34 µM
- GI50 (RXF 393): 1600 nM
- Total growth inhibition (TGI) (RXF 393): 3.04 µM
- CC50 (RXF 393): 5.78 µM
- GI50 (DU-145): 1820 nM
- Total growth inhibition (TGI) (DU-145): 3.44 µM
- CC50 (DU-145; [2]): 6.52 µM
- GI50 (MCF7): 1430 nM
- Total growth inhibition (TGI) (MCF7): 4.13 µM
- CC50 (MCF7): 63.1 µM
- GI50 (MDA-MB-231): 1680 nM
- Total growth inhibition (TGI) (MDA-MB-231): 3.28 µM
- CC50 (MDA-MB-231): 6.41 µM
- GI50 (MDA-MB-468): 1530 nM
- Total growth inhibition (TGI) (MDA-MB-468): 2.96 µM
- CC50 (MDA-MB-468): 5.71 µM

Reference: publication PMC12298351, “Novel 3,19-(N-Phenyl-3-(4-fluorophenyl)-pyrazole) Acetal of Andrographolide Promotes Cell Cycle Arrest and Apoptosis in MDA-MB-231 Breast Cancer Cells” (Pharmaceuticals, 2025)
